Experimental findings from article PMC2661369, “The Signal Peptide of Staphylococcus aureus Panton Valentine Leukocidin LukS Component Mediates Increased Adhesion to Heparan Sulfates” (PLoS ONE, 2009) are described below.

Where no end group is shown, it is not given here.

The format of data set [1] is physicochemical. The note with it: purified synthetic peptide. The text has this: To gain insight into the structure and lipotropic properties of the LukS-PV and LukF-PV signal peptides, the solubility and conformation of the corresponding purified synthetic peptides were examined under various stabilizing conditions by using either cosolvents (TFE: water mixtures, SDS) that are very useful tools for probing the propensity of peptides for secondary structure formation ([11], [12], and references therein), or membrane mimetic media including lysolipid (lysophosphatidyl choline, LPC), and detergents (DM, LPC and DPC). […] TFE is known to solubilize hydrophobic peptides as monomers and to stabilize the folding of peptidic sequences with an intrinsic propensity to adopt an α-helical structure. […] Various CD deconvolution methods used indicate a predominant α-helix content ranging from 64 to 77% in SDS and in TFE 50% for LukS-PV signal peptide, but only of about 40% for LukF-PV signal peptide in both media. […] These findings are consistent with the computer prediction that this peptide could easily aggregate (score of 0.8 with Zyggregator [13]). […] Taken together, these analyses indicate that after its processing by the signal peptidase, the LukS-PV signal peptide could readily leave the membrane translocon context and incorporate to the cytosolic or the extracellular aqueous environment.

Data set [2] concerns Panton Valentine Leukocidin. Kind of data set: Quantification of Panton Valentine Leukocidin production by ELISA. The note with it: supernatant after 24 h of culture, mean±SD, in duplicate. The class given is cell-based, Staphylococcus aureus. The method, then: The level of PVL production in the supernatant after 24 h of staphylococcal culture was determined in duplicate by using an ELISA method as described previously.
The level of PVL production in the supernatant after 24h of culture was determined in duplicate by using an ELISA method as described previously.
A general note: ELISA stands for enzyme-linked immunosorbent assay.

A further data set deals with ECM components. The class given is cell-based, Staphylococcus aureus. Particulars: constructs expressed in LUG960 (RN6390 in b7), P-luk-PV promoter; ECM proteins 5 µg/mL, absorbance at 540 nm.
Another data set has as its system matrix protein. Kind of data set: Effect of heparinase III digestion of ECM proteins on bacterial adhesion. The class given is cell-based, Staphylococcus aureus. Particulars: increasing concentrations added to coated wells, 1 h at room temperature, before adhesion assay. The method, then:
Figure 4 Inhibition of adhesion to collagen IV by heparinase. Isogenic strains of Staphylococcus aureus examined for their binding capacity (Y-axis, absorbance reading at 540 nm) to collagen IV (Sigma) coated on 96-well plates, at concentrations of 5 µg/mL. Heparinase III was added at increasing concentrations (X-axis) to collagen IV (Sigma) before the adhesion assay. Parental (LUG960) indicates the genetic background in which the genetic modifications were made; LukS-PV SP, parental carrying a plasmid encoding the LukS-PV signal peptide. The vertical lines indicate the standard deviations.
To test the effect of digestion of ECM proteins with heparinase, increasing concentrations of heparinase III (Sigma) were added to laminin, elastin and type V, IV, I collagens (Sigma) coated wells, and incubated for 1 h at room temperature. After treatment, the wells were washed with 200 µL PBS 3 times, blocked with 200 µL of 0.2% BSA in PBS at 4°C for 2 h, and used in the adhesion assay.

With “MVKKRLLAATLSLGIITPIATSFHESKA [LukS-PV signal peptide]”, the solubility in water entry in data set [1] was “largely soluble in water”.

In data set [2], “LukS-PV ΔSP: plasmid encoding LukS-PV without signal peptide (MVKKRLLAATLSLGIITPIATSFHESKA)” came in with a PVL levels of 2.39 ± 0.04 µg/mL. Besides, the “adhesion phenotype of expressing strain” value with ECM components is recorded as “basal level of attachment”.

B1: heparinase III: heparinase III (Sigma) (protein, UniProt Q59289 25-659, looked up)
Heparin-sulfate lyase: QSSSITRKDFDHINLEYSGLEKVNKAVAAGNYDDAAKALLAYYREKSKAREPDFSNAEKPADIRQPIDKVTREMADKALVHQFQPHKGYGYFDYGKDINWQMWPVKDNEVRWQLHRVKWWQAMALVYHATGDEKYAREWVYQYSDWARKNPLGLSQDNDKFVWRPLEVSDRVQSLPPTFSLFVNSPAFTPAFLMEFLNSYHQQADYLSTHYAEQGNHRLFEAQRNLFAGVSFPEFKDSPRWRQTGISVLNTEIKKQVYADGMQFELSPIYHVAAIDIFLKAYGSAKRVNLEKEFPQSYVQTVENMIMALISISLPDYNTPMFGDSWITDKNFRMAQFASWARVFPANQAIKYFATDGKQGKAPNFLSKALSNAGFYTFRSGWDKNATVMVLKASPPGEFHAQPDNGTFELFIKGRNFTPDAGVFVYSGDEAIMKLRNWYRQTRIHSTLTLDNQNMVITKARQNKWETGNNLDVLTYTNPSYPNLDHQRSVLFINKKYFLVIDRAIGEATGNLGVHWQLKEDSNPVFDKTKNRVYTTYRDGNNLMIQSLNADRTSLNEEEGKVSYVYNKELKRPAFVFEKPKKNAGTQNFVSIVYPYDGQKAPEISIRENKGNDFEKGKLNLTLTINGKQQLVLVP
As to B1, in the data set on matrix protein, the “effect of heparinase on bacterial adhesion” value is reported as “the bacterial adhesion decreased in a dose-dependent manner”.
